Publication PMC11230868, “eIF2β zinc-binding domain interacts with the eIF2γ subunit through the guanine nucleotide binding interface to promote Met-tRNAi^Met binding” (Bioscience Reports, 2024)

T1: 3xHA-tagged eIF2β T238A mutant (yeast, UniProt P09064 1-285, T238A)
T1 construct: eIF2β, yeast SUI3 ORF + terminator with T238A, cloned behind SUI3 promoter + 3xHA; also called 3xHA-SUI3-T238A; source: yeast, single-copy plasmid, in whole-cell extract; not shown: 3xHA, N-terminal, kept
T1 sequence (looked up): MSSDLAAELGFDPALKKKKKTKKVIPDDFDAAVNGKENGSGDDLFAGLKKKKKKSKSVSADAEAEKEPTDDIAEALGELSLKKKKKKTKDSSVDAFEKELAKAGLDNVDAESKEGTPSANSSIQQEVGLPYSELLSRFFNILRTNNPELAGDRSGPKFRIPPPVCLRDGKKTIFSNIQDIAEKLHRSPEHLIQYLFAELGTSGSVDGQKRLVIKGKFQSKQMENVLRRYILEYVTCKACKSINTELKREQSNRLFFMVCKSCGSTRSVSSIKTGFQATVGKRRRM


Key:
eIF2 complex (eIF2αβγ) = molecular target: T2, eIF2 complex (eIF2αβγ) (Saccharomyces cerevisiae, UniProt P32481); assay: fluorescence anisotropy titration of protein; assay type: binding; settings: labelled compound at 100 nM; pH 7.5, 110 mM K acetate, 2.5 mM Mg acetate, 26 °C; Hill fit n = 1
T2 construct: gene GCD11; full-length heterotrimer, 8xHis tag on N-terminus of eIF2γ (GCD11), overexpressed from pRS425_GCD11, SUI3, SUI2 in yeast YP920 (sui2Δ sui3Δ gcd11Δ); Ni-NTA, heparin and cation exchange; with Eukaryotic translation initiation factor 2 subunit alpha
T2 sequence (P32481 whole entry, one chain of several): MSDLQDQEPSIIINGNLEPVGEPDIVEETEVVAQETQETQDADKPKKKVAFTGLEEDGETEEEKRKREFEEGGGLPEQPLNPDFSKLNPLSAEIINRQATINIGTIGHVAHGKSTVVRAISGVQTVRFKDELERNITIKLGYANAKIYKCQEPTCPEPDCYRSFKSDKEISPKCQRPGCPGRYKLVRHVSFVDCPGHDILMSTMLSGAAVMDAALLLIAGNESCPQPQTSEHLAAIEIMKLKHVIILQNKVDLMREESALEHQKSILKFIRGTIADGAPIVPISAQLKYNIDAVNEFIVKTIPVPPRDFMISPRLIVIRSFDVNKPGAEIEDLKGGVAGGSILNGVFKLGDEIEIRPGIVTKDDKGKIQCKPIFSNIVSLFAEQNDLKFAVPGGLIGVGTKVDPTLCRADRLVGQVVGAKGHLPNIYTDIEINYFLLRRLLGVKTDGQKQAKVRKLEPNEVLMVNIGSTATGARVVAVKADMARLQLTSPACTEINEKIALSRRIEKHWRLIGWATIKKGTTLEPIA
T2 sequence (P09064 whole entry partner, one chain of several): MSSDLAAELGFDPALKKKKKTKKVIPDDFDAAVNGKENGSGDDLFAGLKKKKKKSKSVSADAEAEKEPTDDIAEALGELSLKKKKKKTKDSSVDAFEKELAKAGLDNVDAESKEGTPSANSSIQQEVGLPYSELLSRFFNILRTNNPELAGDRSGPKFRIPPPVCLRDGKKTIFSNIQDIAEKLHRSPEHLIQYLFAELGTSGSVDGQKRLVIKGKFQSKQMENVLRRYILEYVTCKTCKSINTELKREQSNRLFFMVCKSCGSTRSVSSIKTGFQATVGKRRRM

[1] = molecular target: T3, N-terminal 3xHA-tagged eIF2γ (wild type) (yeast, UniProt P32481 1-527); assay: co-IP; 3xHA-eIF2γ precipitated with anti-HA agarose beads from 300 μg yeast WCE (YP912), 4°C, 1 h; 20 mM HEPES pH 7.5, 100 mM KCl, 5 mM MgCl2, 5 mM NaF, 1 mM EDTA, 0.2% NP-40, 1% BSA; Western blot, bands normalised to the anti-HA band; settings: partners not purified
T3 construct: eIF2γ, yeast GCD11; GCD11 ORF + terminator cloned behind GCD11 promoter + 3xHA; also called 3xHA eIF2γ; eIF2γ^WT; source: yeast strain YP912 (gcd11Δ, sui3Δ), single-copy plasmid, in whole-cell extract; not shown: 3xHA, N-terminal, kept
T3 sequence (P32481 whole entry): as the sequence (P32481 whole entry, one chain of several) above

[2] = molecular target: T1, 3xHA-tagged eIF2β T238A mutant; assay: co-IP; Co-IP of the 3xHA-tagged eIF2β subunit from yeast extract (Supplementary Figure S1); settings: partners not purified

| Kd (eIF2 complex (eIF2αβγ)) [nM] | fold change of binding in the eIF2β^T238A strain against the eIF2β^WT strain [1] [fold] | fold change of binding against the 3xHA-eIF2β wild type [2] [fold] | Molecule |
| --- | --- | --- | --- |
| 1400 | – | – | GDPγS-BODIPY |
| 36.7 | – | – | GDP-BODIPY |
| – | ~4.5 | 1.3 | eIF2α subunit (natural protein, yeast, UniProt P20459 1-304, looked up, eIF2α, yeast SUI2; chromosomal gene in the co-IP strains, whole SUI2 gene on pRS425 for the purified complex; also called SUI2; source: endogenous, yeast whole-cell extract (YP912); yeast YP920, high-copy pRS425 plasmid, co-purified in the 8xHis-eIF2 complex) MSTSHCRFYENKYPEIDDIVMVNVQQIAEMGAYVKLLEYDNIEGMILLSELSRRRIRSIQKLIRVGKNDVAVVLRVDKEKGYIDLSKRRVSSEDIIKCEEKYQKSKTVHSILRYCAEKFQIPLEELYKTIAWPLSRKFGHAYEAFKLSIIDETVWEGIEPPSKDVLDELKNYISKRLTPQAVKIRADVEVSCFSYEGIDAIKDALKSAEDMSTEQMQVKVKLVAAPLYVLTTQALDKQKGIEQLESAIEKITEVITKYGGVCNITMPPKAVTATEDAELQALLESKELDNRSDSEDDEDESDDE |
